Consider 3 compounds from patent US10899785B2, “Aminoglycoside derivatives and uses thereof in treating genetic disorders” (Eloxx Pharmaceuticals Ltd., priority 2015, dated 2021).

The structures appear in SMILES notation. Converted amounts (≈) assume the structure as drawn. “Also recorded” adds a separate entry of the source. Like-named read-outs stand apart in the source and are kept apart here.

The test system of one series is E. coli R477-100. The series is described as follows: Antibacterial activity, MIC by double-microdilution. It counts as cell-based. To be noted: Escherichia coli, R477100, read-out: Antibacterial Activity MIC E. Coli R 477/100. Here is the method:
(§1) Comparative antibacterial activities were determined in two representative strains of Gram-negative (E. coli R477-100) and Gram-positive (B. subtilis ATCC-6633) bacteria, by measuring the MIC values using the double-microdilution method according to the National Committee for Clinical Laboratory Standards (NCCLS) (NCCLS. National Committee for Clinical Laboratory Standards, Performance standards for antimicrobial susceptibility testing. Fifth information supplement: Approved Standard M100-S5; Villanova, Pa.: NCCLS, 1994.).
(§2) In all biological tests, all AGs were in their sulfate salt forms, and the concentrations refer to the free amine form of each AG. The eukaryotic and prokaryotic half-maximal-inhibition values (IC50^Euk and IC50^Pro) were quantified in coupled transcription/translation assays by using active luciferase detection as previously described. Minimal inhibitory concentration (MIC) values were determined by using the double-microdilution method.
Background: Broth dilution looks for growth in wells or tubes with falling amounts of substance.

In the next series the test system is B. subtilis ATCC-6633. The description is as above. It counts as cell-based. The note with it: Bacillus subtilis. How it is done: as §1, §2
For the next series, the system named is human fibroblast cells. To be noted: against human fibroblast cells; cited from earlier work.
The test system of series [1] is cystic fibrosis G542X nonsense mutation. Nature of the series: Cell-free nonsense mutation suppression dose-response assay, firefly/renilla. It counts as biochemical, rabbit. To be noted: 0-50 μM, FIGS. 4-7. How it is done:
(§3) The plasmids were transcribed in vitro and translated using rabbit reticulocytes (TNT mix) and then tested for the expression levels of the firefly and renilla luciferases.
(§4) WT plasmids expressed both firefly and renilla luciferases while mutant plasmids expressed only the renilla luciferase due to the stop codon found in the inserted sequence. The readthrough assays were conducted for the tested compounds and the controls by adding the compounds to the in vitro transcription/translation reaction mixture. In case the compounds exerted suppression of the premature nonsense/stop codon mutation, the firefly luciferase was expressed and a fold-change in its expression was observed.
Readthrough activity of Cystic Fibrosis (CF) mutation G542X was tested using the compounds presented in Table 1, and the mutation suppression was calculated based on firefly/renilla expression ratio values, and normalized with respect to the expression level of the WT and the control sample (no tested compound).

Series [2] concerns Rett syndrome R168X, R270X and R294X nonsense mutations. Nature of the series: Cell-free nonsense mutation suppression assay, firefly/renilla. It counts as biochemical, rabbit. To be noted: 5 μM, FIGS. 8A-C. How it is done: as §3, §4
FIGS. 8A-C present the results of Rett syndrome R168X (FIG. 8A), R270X (FIG. 8B) and R294X (FIG. 8C) nonsense mutations suppression cell-free assays conducted for six exemplary compounds according to embodiments of the present invention, NB144, NB145, NB146, NB150, NB151 and NB152, at a concentration of 5 μM. As shown therein, when compared with the control (non-treated cell extracts), the wild type cell extracts are unaffected (approx. 100%); however, in all three Rett syndrome mutation models there is a significant impact of the different treatments on the readthrough activity (>>>100%).

Series [3] relates to prokaryotic ribosome (E. coli S30 extract). The series is described as follows: Prokaryotic in vitro translation inhibition, coupled transcription/translation, E. coli S30 extract, pBESTluc. The note with it: from IC50^Pro and MIC values of Tables 4 and 6. It counts as biochemical. Here is the method: (§5) Prokaryotic in vitro translation inhibition by the different aminoglycosides was quantified in coupled transcription/translation assays by using E. coli S30 extract for circular DNA with the pBESTluc plasmid (Promega), according to the manufacturer's protocol. Translation reactions (25 μL) that contained variable concentrations of the tested aminoglycoside were incubated at 37° C. for 60 minutes, cooled on ice for 5 minutes, and diluted with a dilution reagent (tris-phosphate buffer (25 mM, pH 7.8), DTT (2 mM), 1,2-diaminocyclohexanetetraacetate (2 mM), glycerol (10%), Triton X-100 (1%) and BSA (1 mg mL-1)) into 96-well plates. Eukaryotic in vitro translation inhibition was quantified by use of TNT® T7 Quick Coupled Transcription/Translation System with a luciferase T7 control DNA plasmid (Promega), according to the manufacturer protocol. Translation reactions (25 μL) containing variable concentrations of the tested aminoglycoside were incubated at 30° C. for 60 minutes, cooled on ice for 5 minutes, diluted with the dilution reagent and transferred into 96-well plates. In both prokaryotic and eukaryotic systems the luminescence was measured immediately after the addition of the Luciferase Assay Reagent (50 μL; Promega), and the light emission was recorded with a FLx800 Fluorescence Microplate Reader (Biotek). The half-maximal inhibition concentration (IC50) values were obtained from fitting concentration-response curves to the data of at least two independent experiments by using Grafit 5 software.
as §2

Series [4] relates to nonsense constructs R3X and R245X (USH1), Q70X (HS), G542X (CF). Nature of the series: Dual luciferase in vitro readthrough assay, p2Luc plasmids, TNT Reticulocyte Lysate. It counts as biochemical. The note with it: all mutations tested: R3X, R245X, Q70X, G542X; FIGS. 11A-D. The source says: DNA fragments derived from PCDH15, CFTR, and IDUA cDNAs, including the tested nonsense mutation or the corresponding wild type (wt) codon, and four to six upstream and downstream flanking codons were created by annealing the following pairs of complementary oligonucleotides:
Fragments were inserted in frame into the polylinker of the p2Luc plasmid between either BamHI and SacI (p.R3X and p.R245X) or SalI and SacI (all the rest) restriction sites. For the in vitro readthrough assays, the obtained plasmids, with addition of the tested aminoglycosides were transcribed and translated using the TNT Reticulocyte Lysate Quick Coupled Transcription/Translation System. Luciferase activity was determined after 90 minutes of incubation at 30° C., using the Dual Luciferase Reporter Assay System (Promega™).
Activity was tested using a collection of dual-luciferase reporter plasmids, containing different sequence contests around premature stop codons derived from the PCDH15, CFTR, and IDUA genes that underline USH1, CF, and MPS I-H, respectively. The exemplified nonsense reporters were R3X and R245X for USH1, G542X for CF, and Q70X for MPS I-H.

Series [5] concerns eukaryotic cytoplasmic ribosome. Nature of the series: Eukaryotic in vitro translation inhibition, TNT T7 Quick Coupled Transcription/Translation System, luciferase. It counts as biochemical. The note with it: NB156 vs NB74, NB157 vs NB124. Here is the method:
as §5, with “Translation reactions (25 μL) containing variable concentrations of the tested aminoglycoside were incubated at 30° C. for 60 minutes, cooled on ice for 5 minutes, diluted with the dilution reagent and transferred into 96-well plates.” left out, “The half-maximal inhibition concentration (IC50) values were obtained from fitting concentration-response curves to the data of at least two independent experiments by using Grafit 5 software.” left out
In all biological tests, all AGs were in their sulfate salt forms, and the concentrations refer to the free amine form of each AG. […] Minimal inhibitory concentration (MIC) values were determined by using the double-microdilution method.

Series [6] has as its system stop codon mutations of Table 5. The series is described as follows: Dual-luciferase readthrough of a broad arsenal of stop codon mutations. The note with it: all tested mutations. It counts as biochemical. Here is the method: In these assays, the readthrough of a broad arsenal of stop codon mutations in the presence of NB156 and NB157 was tested. Briefly, NB156 and NB157 were tested at escalating doses for their read-through properties towards the nonsense mutation using the wild-type (WT) sequence of each specific complementary DNA (cDNA) as a control, and plasmids bearing the stop codon mutations in a dual-luciferase assay. DNA fragments derived from different cDNAs were prepared using either the WT or nonsense mutation, in which the sequences from the mutant or wild-type codon were surrounded by four to six upstream and downstream flanking codons. The cDNA sequence was inserted into the polylinker of the p2luc plasmid for each sequence.

In the case of `CN[C@@H]1[C@@H](O)[C@@H](O[C@@H]2[C@@H](O)[C@H](O[C@H]3O[C@H]([C@@H](C)O)[C@@H](O)[C@H](O)[C@H]3N)[C@@H](N)C[C@H]2N)OC[C@]1(C)O` [Compound G418, geneticin, reference compound], the MIC in the series with E. coli R477-100 is 9 µM (≈ 4.47 µg/mL); in the series with B. subtilis ATCC-6633 (ATCC6633, read-out: Antibacterial Activity MIC B. Subtilis ATCC6633), less than 1.25 µM. In addition, in the series on human fibroblast cells, the LD50 was 0.04 mg/mL.
As to `CCCN[C@@H]1CC(N)[C@@H](O[C@H]2OC([C@@H](C)O)[C@@H](O)C(O)C2N)C(O)C1O` (stereo in doubt) [NB146], the “G542X mutation suppression (readthrough) activity, dose-response” value in [1] is “clearly dose-dependent for all three compounds, and particularly for NB146; also recorded: notable dose-dependent readthrough activity”. Besides, in series [2], the “readthrough activity compared within the series” value is “better activity compared to NB144 and NB145”.
`NC[C@H]1O[C@@H](O[C@@H]2[C@@H](O)[C@H](N)C[C@H](N)[C@H]2O[C@H]2O[C@H]([C@H](O)CO)[C@@H](O)[C@H](O)[C@H]2N)[C@@H](O)[C@H]1O` [NB156, (2R, 3S, 4R, 5R, 6S)-5-amino-6-(((1R, 2R, 3S, 4R, 6S)-4,6-diamino-2-(((2S, 3S, 4R, 5R)-5-(aminomethyl)-3,4-dihydroxytetrahydrofuran-2-yl)oxy)-3-hydroxycyclohexyl)oxy)-2-((R)-1,2-dihydroxyethyl)tetrahydro-2H-pyran-3,4-diol]: the MIC in the series with E. coli R477-100 is greater than 273 µM. The MIC in the series with B. subtilis ATCC-6633 (ATCC6633, Table 4, read-out: Antibacterial Activity MIC B. Subtilis ATCC6633) is 34 µM (≈ 16.5 µg/mL). In addition, in [3], the “prokaryotic ribosome/protein synthesis inhibition and subsequent antibacterial activity compared with structurally related compound” value is “very similar to those of their structurally related Compounds NB74 and NB124”. For the same compound, in [4], the “readthrough activity compared with gentamicin” value is “significantly better than that of the clinical drug gentamicin” and the “readthrough activity compared with structurally related compound” value was “substantially better than that of the structurally related NB74”. For the same compound, the “fold more specific to the eukaryotic ribosome than structurally related compound” value in series [5] was 1.85 fold. Also, the “stop-codon mutation readthrough activity compared with NB74” value in [6] is listed as “more active than NB74”.
